Test results as given in PubChem BioAssay (NCI).
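Cells were grown in 96-well plates and exposed to each compound for 48 hours at five concentrations; endpoints were interpolated linearly between bracketing concentrations, or set to the highest concentration if not reached. The concentration for full growth arrest is given as TGI.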

What was measured:
Assay in all cases: DTP human tumour cell line panel, 48 h
786-0 renal = tested on: 786-0 renal
A498 renal = tested on: A498 renal
A549 NSCLC = tested on: A549 NSCLC
ACHN renal = tested on: ACHN renal
CAKI-1 renal = tested on: CAKI-1 renal
CCRF-CEM leukemia = tested on: CCRF-CEM leukemia
COLO 205 colon = tested on: COLO 205 colon
DLD-1 colon = tested on: DLD-1 colon
DMS 114 small cell lung = tested on: DMS 114 small cell lung
EKVX NSCLC = tested on: EKVX NSCLC
HCC-2998 colon = tested on: HCC-2998 colon
HCT-116 colon = tested on: HCT-116 colon
HL-60(TB) leukemia = tested on: HL-60(TB) leukemia
HOP-62 NSCLC = tested on: HOP-62 NSCLC
HOP-92 NSCLC = tested on: HOP-92 NSCLC
HT29 colon = tested on: HT29 colon
IGROV1 ovarian = tested on: IGROV1 ovarian
KM12 colon = tested on: KM12 colon
KM20L2 colon = tested on: KM20L2 colon
M14 melanoma = tested on: M14 melanoma
M19-MEL melanoma = tested on: M19-MEL melanoma
MALME-3M melanoma = tested on: MALME-3M melanoma
MOLT-4 leukemia = tested on: MOLT-4 leukemia
NCI-H23 lung = tested on: NCI-H23 lung
NCI-H460 lung = tested on: NCI-H460 lung
NCI-H522 lung = tested on: NCI-H522 lung
OVCAR-3 ovarian = tested on: OVCAR-3 ovarian
OVCAR-4 ovarian = tested on: OVCAR-4 ovarian
OVCAR-5 ovarian = tested on: OVCAR-5 ovarian
OVCAR-8 ovarian = tested on: OVCAR-8 ovarian
RPMI-8226 leukemia = tested on: RPMI-8226 leukemia
RXF 393 renal = tested on: RXF 393 renal
SF-268 CNS = tested on: SF-268 CNS
SF-295 CNS = tested on: SF-295 CNS
SF-539 CNS = tested on: SF-539 CNS
SK-MEL-2 melanoma = tested on: SK-MEL-2 melanoma
SK-MEL-28 melanoma = tested on: SK-MEL-28 melanoma
SK-MEL-5 melanoma = tested on: SK-MEL-5 melanoma
SK-OV-3 ovarian = tested on: SK-OV-3 ovarian
SN12C renal = tested on: SN12C renal
SNB-19 CNS = tested on: SNB-19 CNS
SR leukemia = tested on: SR leukemia
SW-620 colon = tested on: SW-620 colon
TK-10 renal = tested on: TK-10 renal
UACC-257 melanoma = tested on: UACC-257 melanoma
UACC-62 melanoma = tested on: UACC-62 melanoma
UO-31 renal = tested on: UO-31 renal
K-562 leukemia = tested on: K-562 leukemia
LXFL 529 NSCLC = tested on: LXFL 529 NSCLC
SNB-75 CNS = tested on: SNB-75 CNS
SNB-78 CNS = tested on: SNB-78 CNS
U251 CNS = tested on: U251 CNS
DMS 273 small cell lung = tested on: DMS 273 small cell lung
HCT-15 colon = tested on: HCT-15 colon
LOX IMVI melanoma = tested on: LOX IMVI melanoma

Measured: TGI

COc1nc(C(=O)O)c(Cl)c(OC)c1Cl
not listed: K-562 leukemia | LXFL 529 NSCLC | SNB-75 CNS | SNB-78 CNS | U251 CNS | DMS 273 small cell lung | HCT-15 colon | LOX IMVI melanoma
> 100 µM: all other assays above

COc1ccc2c(c1)CC[C@@H]1C2CC[C@]2(C)C(=O)N(CCN3CCCC3)C(=O)CC12 (stereo partly specified)
42.1 µM: SF-295 CNS
32.2 µM: SK-MEL-2 melanoma
37.6 µM: COLO 205 colon
52.7 µM: NCI-H522 lung
81.8 µM: HOP-92 NSCLC
35.8 µM: 786-0 renal
45.2 µM: HL-60(TB) leukemia
87.1 µM: SNB-75 CNS
57.7 µM: MOLT-4 leukemia
31.5 µM: MALME-3M melanoma
38.9 µM: SK-MEL-28 melanoma
38.7 µM: UACC-257 melanoma
66.6 µM: HOP-62 NSCLC
35.1 µM: UACC-62 melanoma
34.4 µM: RPMI-8226 leukemia
34.8 µM: HT29 colon
55 µM: KM20L2 colon
35.7 µM: M19-MEL melanoma
31.1 µM: M14 melanoma
76.4 µM: DMS 114 small cell lung
86.7 µM: RXF 393 renal
49.9 µM: UO-31 renal
89.6 µM: LXFL 529 NSCLC
> 100 µM: A498 renal | ACHN renal | IGROV1 ovarian | KM12 colon | NCI-H23 lung | NCI-H460 lung | OVCAR-3 ovarian | OVCAR-4 ovarian | OVCAR-5 ovarian | SF-268 CNS | SK-OV-3 ovarian | SNB-19 CNS | SNB-78 CNS | SR leukemia | U251 CNS
70.1 µM: K-562 leukemia

c1ccc(C2=NOC3COc4ccccc4OCC23)cc1 (stereo unspecified)
not listed: DLD-1 colon | HOP-92 NSCLC | IGROV1 ovarian | M19-MEL melanoma | OVCAR-5 ovarian
> 100 µM: all other assays above
